{
  "source": "patent EP4711367A1",
  "about": "“PYRAZOLOPYRAZINE COMPOUND AND METHOD FOR PREPARING CRYSTAL FORM THEREOF” (CMS Research & Development Pte. Ltd., priority 2023, dated 2024)",
  "key": {"JAK1(h)": {"target": "T1, JAK1(h) (Homo sapiens, UniProt P23458)", "T1 construct": "purchased Eurofins (UK)", "T1 sequence (P23458 whole entry)": "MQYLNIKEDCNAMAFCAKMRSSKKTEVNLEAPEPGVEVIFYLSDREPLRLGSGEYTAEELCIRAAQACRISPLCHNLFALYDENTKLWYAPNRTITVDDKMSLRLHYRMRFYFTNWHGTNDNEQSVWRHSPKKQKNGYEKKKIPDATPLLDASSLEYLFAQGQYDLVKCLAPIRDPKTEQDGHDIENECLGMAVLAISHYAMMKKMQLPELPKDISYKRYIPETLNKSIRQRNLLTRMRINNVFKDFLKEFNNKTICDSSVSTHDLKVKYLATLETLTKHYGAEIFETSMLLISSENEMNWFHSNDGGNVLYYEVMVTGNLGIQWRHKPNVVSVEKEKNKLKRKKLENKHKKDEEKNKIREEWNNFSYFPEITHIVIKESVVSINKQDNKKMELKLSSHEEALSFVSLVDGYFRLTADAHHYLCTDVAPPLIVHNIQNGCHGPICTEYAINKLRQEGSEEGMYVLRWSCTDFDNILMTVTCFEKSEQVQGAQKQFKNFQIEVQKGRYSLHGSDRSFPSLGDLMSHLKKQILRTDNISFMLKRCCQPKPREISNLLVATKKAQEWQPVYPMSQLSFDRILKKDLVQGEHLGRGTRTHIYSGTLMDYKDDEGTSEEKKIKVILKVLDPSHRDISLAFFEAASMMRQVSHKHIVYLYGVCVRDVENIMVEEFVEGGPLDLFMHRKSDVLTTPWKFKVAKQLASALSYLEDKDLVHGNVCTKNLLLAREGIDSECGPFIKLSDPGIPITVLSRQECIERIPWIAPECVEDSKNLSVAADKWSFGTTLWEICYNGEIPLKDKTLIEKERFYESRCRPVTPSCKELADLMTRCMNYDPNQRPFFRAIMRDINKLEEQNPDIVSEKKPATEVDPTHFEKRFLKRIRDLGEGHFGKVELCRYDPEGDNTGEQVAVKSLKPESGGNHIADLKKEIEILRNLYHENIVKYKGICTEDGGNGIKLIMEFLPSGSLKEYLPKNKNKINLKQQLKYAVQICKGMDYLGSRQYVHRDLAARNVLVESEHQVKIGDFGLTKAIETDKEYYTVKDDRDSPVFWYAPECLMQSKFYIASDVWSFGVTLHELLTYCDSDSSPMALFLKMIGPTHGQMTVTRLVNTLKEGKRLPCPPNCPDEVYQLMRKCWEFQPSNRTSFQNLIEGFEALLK", "assay": "In vitro activity test of JAK1 kinase ([γ-33P]-ATP filter assay, Eurofins)", "assay_type": "biochemical", "experimental": "(§1) Recombinant human JAK1, JAK2, JAK3, and Tyk2 proteases, along with major instruments and reagents, were provided by Eurofins in the UK.\n(§2) JAK2, JAK3, and TYK2 were diluted with: 20 mM 3-(N-morpholino)propanesulfonic acid (MOPS), 1 mM EDTA, 0.01% Brij-35.5% glycerol, 0.1% β-mercaptoethanol, 1 mg/mL BSA; JAK1 was diluted with: 20 mM TRIS, 0.2 mM EDTA, 0.1% β-mercaptoethanol, 0.01% Brij-35.5% glycerol. The compound of formula (I) was prepared as a 100% DMSO solution and diluted to 50 times the final assay concentration. The test compound was subjected to a 3-fold serial dilution, with final concentrations ranging from 10 µM to 0.001 µM across 9 concentrations, and the DMSO content in the detection reaction was 2%. The working stock solution of this compound was added as the first component of the reaction to the assay wells, followed by the addition of the remaining components according to the protocol detailed below.\nJAK1(h) was incubated with 20 mM Tris/HCl pH 7.5, 0.2 mM EDTA, 500 µM MGEEPLYWSFPAKKK, 10 mM magnesium acetate, and [γ-^33P]-ATP (activity and concentration adjusted as needed). The reaction was initiated by adding the Mg/ATP mixture and incubated at room temperature for 40 minutes, then terminated by adding 0.5% phosphoric acid. […]\n(§3) The IC50 results were analyzed using XLFIT5 (205 formula) from IDBS, as detailed in Table 12. […]"}, "JAK2(h)": {"target": "T2, JAK2(h) (Homo sapiens, UniProt O60674)", "T2 construct": "purchased Eurofins (UK)", "T2 sequence (O60674 whole entry)": "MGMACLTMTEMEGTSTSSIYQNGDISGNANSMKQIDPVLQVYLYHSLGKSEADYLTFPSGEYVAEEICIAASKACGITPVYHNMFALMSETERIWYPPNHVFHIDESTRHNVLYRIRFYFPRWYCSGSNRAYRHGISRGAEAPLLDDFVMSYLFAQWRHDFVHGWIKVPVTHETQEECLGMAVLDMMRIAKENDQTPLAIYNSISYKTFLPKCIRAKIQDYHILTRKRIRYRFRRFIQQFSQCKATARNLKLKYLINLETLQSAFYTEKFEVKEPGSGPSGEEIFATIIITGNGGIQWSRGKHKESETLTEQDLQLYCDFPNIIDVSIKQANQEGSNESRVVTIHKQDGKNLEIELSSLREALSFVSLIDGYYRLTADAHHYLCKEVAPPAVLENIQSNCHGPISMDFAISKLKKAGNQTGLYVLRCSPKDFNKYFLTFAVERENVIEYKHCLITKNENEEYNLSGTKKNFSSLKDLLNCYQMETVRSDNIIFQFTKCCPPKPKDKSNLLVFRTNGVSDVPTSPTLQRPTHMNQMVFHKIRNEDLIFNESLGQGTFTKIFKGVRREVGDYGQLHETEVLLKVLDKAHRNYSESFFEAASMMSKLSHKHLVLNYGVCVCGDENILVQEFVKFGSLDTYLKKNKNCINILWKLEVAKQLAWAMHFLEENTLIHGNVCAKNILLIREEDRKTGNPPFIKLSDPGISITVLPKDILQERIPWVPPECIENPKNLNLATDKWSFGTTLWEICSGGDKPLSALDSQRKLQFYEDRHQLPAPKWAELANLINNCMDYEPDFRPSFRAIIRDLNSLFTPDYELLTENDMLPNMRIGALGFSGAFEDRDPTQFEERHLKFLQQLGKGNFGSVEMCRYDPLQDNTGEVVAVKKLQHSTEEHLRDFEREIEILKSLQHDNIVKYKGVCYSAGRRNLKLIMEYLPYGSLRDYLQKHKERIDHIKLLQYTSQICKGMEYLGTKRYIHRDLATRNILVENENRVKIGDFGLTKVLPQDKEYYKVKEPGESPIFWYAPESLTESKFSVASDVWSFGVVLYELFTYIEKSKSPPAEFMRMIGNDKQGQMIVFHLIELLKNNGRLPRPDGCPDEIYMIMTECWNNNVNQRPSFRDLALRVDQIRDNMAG", "assay": "In vitro activity test of JAK2 kinase ([γ-33P]-ATP filter assay, Eurofins)", "assay_type": "biochemical", "experimental": "as §1, §2\nJAK2(h) was incubated with 8 mM MOPS pH 7.0, 0.2 mM EDTA, 100 µM […], 10 mM magnesium acetate, and [γ-^33P]-ATP (prepared to the required activity and concentration). The reaction was initiated by adding the Mg/ATP mixture and incubated at room temperature for 40 minutes, then terminated by adding 0.5% phosphoric acid. […]\nas §3"}, "JAK3(h)": {"target": "T3, JAK3(h) (Homo sapiens, UniProt P52333)", "T3 construct": "purchased Eurofins (UK)", "T3 sequence (P52333 1-1124)": "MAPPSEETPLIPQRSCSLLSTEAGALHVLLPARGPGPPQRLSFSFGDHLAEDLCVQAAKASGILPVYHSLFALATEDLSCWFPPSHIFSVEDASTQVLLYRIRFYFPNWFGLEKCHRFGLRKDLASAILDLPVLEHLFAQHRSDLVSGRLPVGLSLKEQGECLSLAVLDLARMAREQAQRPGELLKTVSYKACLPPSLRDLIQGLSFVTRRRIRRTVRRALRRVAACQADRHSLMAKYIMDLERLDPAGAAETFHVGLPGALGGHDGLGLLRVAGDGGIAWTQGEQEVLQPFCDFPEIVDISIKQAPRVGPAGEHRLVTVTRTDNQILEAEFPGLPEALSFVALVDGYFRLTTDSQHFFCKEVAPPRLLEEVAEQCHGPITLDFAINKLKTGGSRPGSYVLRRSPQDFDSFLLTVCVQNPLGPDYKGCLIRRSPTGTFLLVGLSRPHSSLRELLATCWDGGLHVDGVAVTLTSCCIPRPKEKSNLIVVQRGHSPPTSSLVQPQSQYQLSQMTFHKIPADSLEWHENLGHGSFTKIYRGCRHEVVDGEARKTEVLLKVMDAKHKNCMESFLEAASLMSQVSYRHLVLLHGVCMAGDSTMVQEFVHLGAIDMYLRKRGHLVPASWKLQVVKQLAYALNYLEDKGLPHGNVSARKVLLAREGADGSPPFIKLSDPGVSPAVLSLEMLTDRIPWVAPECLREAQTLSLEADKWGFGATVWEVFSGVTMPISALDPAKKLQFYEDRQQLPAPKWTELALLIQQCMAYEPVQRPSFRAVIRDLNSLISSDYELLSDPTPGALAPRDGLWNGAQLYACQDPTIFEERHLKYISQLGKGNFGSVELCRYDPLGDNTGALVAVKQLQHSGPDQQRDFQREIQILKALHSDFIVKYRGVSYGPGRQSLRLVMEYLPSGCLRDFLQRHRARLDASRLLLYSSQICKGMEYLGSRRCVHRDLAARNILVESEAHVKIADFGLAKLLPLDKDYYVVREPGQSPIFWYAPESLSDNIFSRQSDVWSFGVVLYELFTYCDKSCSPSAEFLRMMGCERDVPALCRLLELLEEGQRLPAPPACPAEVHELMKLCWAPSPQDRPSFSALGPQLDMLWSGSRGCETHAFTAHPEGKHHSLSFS", "assay": "In vitro activity test of JAK3 kinase ([γ-33P]-ATP filter assay, Eurofins)", "assay_type": "biochemical", "experimental": "as §2, with “Recombinant human JAK1, JAK2, JAK3, and Tyk2 proteases, along with major instruments and reagents, were provided by Eurofins in the UK. JAK2,” for “JAK2,”, “below. JAK3(h) was incubated with 8 mM MOPS pH 7.0, 0.2 mM EDTA, 500 µM GGEEEEYFELVKKKK, 10 mM magnesium acetate, and [γ-^33P]-ATP (activity and concentration were adjusted as needed). The reaction was initiated by adding the Mg/ATP mixture and incubated at room temperature for 40 minutes, then terminated by adding 0.5% phosphoric acid. […] The IC50 results were analyzed using XLFIT5 (205 formula) from IDBS, as detailed in Table 12. […]” for “below.”"}, "paw swelling": {"test_system": "paw swelling", "assay": "Paw swelling and scores in mice after oral administration (only summarised, no method given)", "assay_type": "in vivo"}},
  "data": [
    {"smiles": "Cn1cc(-c2cn3nccc3c(-c3cnn([C@]4(CC#N)CC5(C[C@H](C#N)C5)C4)c3)n2)cn1", "note": "(stereo partly drawn) [Compound of formula (I)]", "values": [
      {"measurement": "IC50", "setting": "JAK1(h)", "result": 10, "unit": "nM"},
      {"measurement": "IC50", "setting": "JAK2(h)", "result": 4, "unit": "nM"},
      {"measurement": "IC50", "setting": "JAK3(h)", "result": 189, "unit": "nM"},
      {"measurement": "degree of paw swelling (in words)", "setting": "paw swelling", "result": "significantly improve"},
      {"measurement": "effect on animal body weight (in words)", "setting": "paw swelling", "result": "no significant effect"},
      {"measurement": "scores and relative scores (in words)", "setting": "paw swelling", "result": "ameliorate"}
    ]}
  ]
}
